Test results reported in US20190389843A1, “PYRROLE mTORC INHIBITORS AND USES THEREOF” (Navitor Pharmaceuticals, Inc., priority 2016, published 2019).
Where a name gives a salt, the structure may show the parent alone.

Key:
Format in all cases: cell-based
[1] = system: pS6K1 in MCF7 (measure of mTORC1 activity); assay: AlphaLISA Ultra pS6K1 assay; details: Homo sapiens, MCF7, 2 h, MCF-7 cells, 2 hours compound incubation
Summary of the method: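 MCF7 cells, refreshed medium 2 h, treated with compound 2 h at 0.5% DMSO final, then lysed. Phospho-S6K1 in lysates detected by AlphaLISA Ultra (acceptor beads 2 h, donor beads 2 h), read as Alpha signal on a multimode reader.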

[2] = system: pAKT in MCF7 (measure of mTORC2 activity); assay: AlphaLISA Ultra pAKT assay; details: Homo sapiens, MCF7, 2 h, MCF-7 cells, 2 hours compound incubation
Summary of the method: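 MCF7 cells, 16,000-20,000 per well, treated with compound for 2 h at 0.5% final DMSO, then lysed. Phospho-AKT, as a readout of mTORC2 activity, measured by AlphaLISA Ultra with acceptor beads and then donor beads, 2 h each.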

[3] = system: Glucose uptake in MCF-7 cells; assay: Radioactive glucose uptake in MCF-7 cells; details: Homo sapiens, MCF7, 3H-2DG uptake, 20 mins
Protocol: Example 157: Radioactive Glucose Uptake in MCF-7 Cells
Assay Protocol • 1. Seed approximately 12,000 MCF-7 cells cultured without insulin per well in 96-well plates (BIOCOAT, #356690) and let the cells sit in hood for 30 min. (Cell culture medium: DMEM+10% FBS). • 2. Put the cell culture plates in TC incubator (5% CO2, 37° C.) and incubate overnight. • 3. Take out the cell plates and wash with prewarmed KRH buffer (37° C.) three times using BioTek plate washer. (KRH buffer preparation: 136 mM NaCl, 4.7 mM KCl, 1.25 mM MgCl2, 1.2 mM CaCl2, 20 mM HEPES, 0.1 mg/ml sodium pyruvate, 0.1% BSA, pH 7.4). • 4. Compound preparation and treatment: • a) Add 12 ul compound stock in 100% DMSO to the first column of Echo LDV plate • b) Serially dilute the compound solution in 100% DMSO (4 uL+8 uL DMSO) using Bravo for 9 doses • c) Dispense 350 nL compounds using Echo to the working plate • d) i) Without compound preincubation condition, dispense 116 uL KRH buffer containing tritiated 2-deoxy-D-glucose (3H-2DG) and 2-deoxy-D-glucose (2DG) to the working plate and mix. • ii. With compound preincubation condition, dispense 110 uL KRH buffer only to the working plates and mix • e) Keep the compound working plate at 37° C. incubator until use • 5. Discard the KRH buffer (cells were kept in KRH buffer for 10-15 min before 2-DG addition) and transfer 100 uL compound working solution out to the cell culture plate using Bravo. Incubate for 20 mins at 37° C. (2DG final at 0.2 mM, 3H-2DG at 10 uCi/mL). • 6. Add prewarmed 50 uL KRH buffer (37° C.) containing 60 mM cold 2DG to the wells to stop the 2DG uptake using Multidrop combi • 7. Wash the cells with prewarmed PBS three times using BioTek plate washer • 8. Add 50 uL lysis buffer (0.1 M NaOH) into the assay plate to lyse the cells using Bravo and shake at 800 rpm for 30 min. • 9. Mix and transfer 20 uL lysate to a new white plate (Corning, #3610) and add 200 uL MicroScint-20 using Bravo • 10. Shake the plate at 1000 rpm for 30 min and count in a MicroBeta plate reader.

IC50 [1]	IC50 [2]	IC50 [3]	Compound
10 to 1000 nM	> 300 nM	10 to 1000 nM	Cc1c(CN2CCN(c3ccccc3Cl)CC2)cc(C(=O)N2CCN(c3ccc(F)cn3)CC2)n1C [Example I-72]
10 to 1000 nM	> 1000 nM	–	Cn1cc(CN2CCN(c3ccccc3Cl)CC2)cc1C(=O)N1CCN(c2ccccn2)CC1 [Example I-122]
1000 to 3000 nM	> 5000 nM	–	Cc1c(CN2CCN(c3ccccc3Cl)CC2)cc(C(=O)N2CCN(c3ncc(F)cn3)C[C@@H]2C)n1C [Example I-77, (S)-(4-((4-(2-chlorophenyl)piperazin-1-yl)methyl)-1,5-dimethyl-1H-pyrrol-2-yl)(4-(5-fluoropyrimidin-2-yl)-2-methylpiperazin-1-yl)methanone]
10 to 1000 nM	> 3000 nM	–	Cc1c(CN2CCN(c3ccccc3Cl)CC2)cc(C(=O)N2CCN(c3cc(Cl)ccn3)CC2)n1C [Example I-71]
10 to 1000 nM	> 3000 nM	–	Cc1c(CN2CCN(c3ccccc3C#N)CC2)cc(C(=O)N2CCN(c3ccccn3)CC2)n1C [Example I-60]
1000 to 3000 nM	> 5000 nM	–	Cc1c(CN2CCN(c3ccccc3Cl)CC2)cc(C(=O)N2CCN(c3cccc(F)c3)C[C@@H]2C)n1C [Example I-75, (S)-(4-((4-(2-chlorophenyl)piperazin-1-yl)methyl)-1,5-dimethyl-1H-pyrrol-2-yl)(4-(3-fluorophenyl)-2-methylpiperazin-1-yl)methanone 2,2,2-trifluoroacetate]
10 to 1000 nM	> 300 nM	10 to 1000 nM	Cc1c(CN2CCN(c3ccccc3C#N)CC2)cc(C(=O)N2CCN(c3ccc(F)cn3)CC2)n1C [Example I-63]
10 to 1000 nM	> 1000 nM	–	C[C@H]1CN(c2ccccc2C#N)CCN1C(=O)c1cc(CN2CCN(c3ccccc3Cl)CC2)cn1C [Example I-121, (S)-2-(4-(4-((4-(2-chlorophenyl)piperazin-1-yl)methyl)-1-methyl-1H-pyrrole-2-carbonyl)-3-methylpiperazin-1-yl)benzonitrile]
1000 to 3000 nM	> 10000 nM	–	COCCn1cc(CN2CCN(c3ccccc3Cl)CC2)cc1C(=O)N1CCN(c2ccccc2)CC1 [Example I-152]
3000 to 10000 nM	> 10000 nM	–	Cn1cc(CN2CCN(c3ccccc3Cl)CC2)cc1C(=O)N1CCN(c2cc(F)c(F)c(F)c2)CC1 [Example I-132, (4-((4-(2-Chlorophenyl)piperazin-1-yl)methyl)-1-methyl-1H-pyrrol-2-yl)(4-(3,4,5-trifluorophenyl)piperazin-1-yl)methanone trifluoroacetate salt]
10 to 1000 nM	> 3000 nM	–	Cc1c(CN2CCN(c3ncccc3Cl)CC2)cc(C(=O)N2CCN(c3ccc(F)c(F)c3)C[C@@H]2C)n1C [Example I-78, (S)-(4-((4-(3-chloropyridin-2-yl)piperazin-1-yl)methyl)-1,5-dimethyl-1H-pyrrol-2-yl)(4-(3,4-difluorophenyl)-2-methylpiperazin-1-yl)methanone]
1000 to 3000 nM	> 10000 nM	–	Cc1c(CN2CCN(c3ccccc3Cl)CC2)cc(C(=O)N2CCN(c3cccc4cc[nH]c34)C[C@@H]2C)n1C [Example I-31, (S)-(4-(1H-indol-7-yl)-2-methylpiperazin-1-yl)(4-((4-(2-chlorophenyl)piperazin-1-yl)methyl)-1,5-dimethyl-1H-pyrrol-2-yl)methanone]
1000 to 3000 nM	> 5000 nM	> 3000 nM	Cc1c(CN2CCN(c3ccccc3Cl)CC2)cc(C(=O)N2CCn3c(cc4ccccc43)C2)n1C [Example I-76, (4-((4-(2-chlorophenyl)piperazin-1-yl)methyl)-1,5-dimethyl-1H-pyrrol-2-yl)(3,4-dihydropyrazino[1,2-a]indol-2(1H)-yl)methanone]
10 to 1000 nM	> 3000 nM	–	COc1ccnc(N2CCN(C(=O)c3cc(CN4CCN(c5ccccc5C#N)CC4)c(C)n3C)CC2)c1 [Example I-61]
1000 to 3000 nM	> 3000 nM	–	Cn1cc(CN2CCN(c3ncccc3Cl)CC2)cc1C(=O)N1CCN(c2ccccc2)CC1 [Example I-119, (4-((4-(3-chloropyridin-2-yl)piperazin-1-yl)methyl)-1-methyl-1H-pyrrol-2-yl)(4-phenylpiperazin-1-yl)methanone]
10 to 1000 nM	> 3000 nM	–	C[C@H]1CN(c2cccc(C#N)c2)CCN1C(=O)c1cc(CN2CCN(c3ccccc3C#N)CC2)cn1C [Example I-57]
10 to 1000 nM	> 10000 nM	–	Cc1c(CN2CCN(c3ccccc3C#N)CC2)cc(C(=O)N2CCN(c3ccccc3C#N)CC2)n1C [Example I-23]
3000 to 10000 nM	> 10000 nM	–	COCCn1cc(CN2CCN(c3ccccc3)CC2)cc1C(=O)N1CCN(c2ccccc2C#N)CC1 [Example I-149]
10 to 1000 nM	> 1000 nM	–	C[C@H]1CN(c2cccc(C#N)c2)CCN1C(=O)c1cc(CN2CCN(c3ccccc3Cl)CC2)cn1C [Example I-123, (S)-3-(4-(4-((4-(2-chlorophenyl)piperazin-1-yl)methyl)-1-methyl-1H-pyrrole-2-carbonyl)-3-methylpiperazin-1-yl)benzonitrile]

Compound	IC50 [1]	IC50 [2]	IC50 [3]
Cc1c(CN2C3CCC2CN(c2ccccc2C#N)C3)cc(C(=O)N2CCN(c3ccccn3)CC2)n1C [Example I-52, 2-(8-((1,2-dimethyl-5-(4-(pyridin-2-yl)piperazine-1-carbonyl)-1H-pyrrol-3-yl)methyl)-3,8-diazabicyclo[3.2.1]octan-3-yl)benzonitrile]	10 to 1000 nM	> 10000 nM	–
